# Values quoted from earlier work in paper PMC6591635, “Advancing the Therapeutic Potential of Indoleamides for Tuberculosis” (Antimicrobial Agents and Chemotherapy, 2019).
# Tested on: M. tuberculosis H37Rv
# Conditions: M. tuberculosis H37Rv; concentration used as 1× MIC; cited from earlier work
smiles,measurement,value
Cc1cc(C)c2cc(C(=O)NC3CCCCCCC3)[nH]c2c1 [compound 1],MIC (1× MIC),4 ng/mL
